US20250154172A1, “PRMT5 INHIBITORS AND USES THEREOF” (Gilead Sciences, Inc., priority 2023, published 2025)

Columns and labels:
Sprague-Dawley Rat PK = format: in vivo; details: for BPR: Blood plasma ratio; for clearance / half-life / Vd: IV 0.33 mg/Kg; for clearance: plasma clearance, read-out: Observed CLp (converted); for Fold IVIVc: [Observed CLp/[BPR]/[Predicted Hepatocyte CL]; for half-life / Vd: plasma; for Vd: read-out: Vss
From the text: The following abbreviations are defined as follows for table 5. BPR: Blood plasma ratio, CLp: plasma clearance.
Cell viability assay data for LU99, SW780, BxPC-3, Panc-1, AsPC-1, Calu-6 and U-2 OS for AMG-193 and example Ca-47 are provided in Table 4. The following abbreviations are defined as follows for table 5. BPR: Blood plasma ratio, CLp: plasma clearance. Fold IVIVc=[Observed CLp/[BPR]/[Predicted Hepatocyte CL]

U-2 OS = assay: Cell viability assay for additional cell lines: U-2 OS; format: cell-based; details: Homo sapiens, U2OS, 216 h, 9-day treatment, average of n=2, read-out: MTAP-WT GI50
Experimental: (§1) Some Compounds of the Disclosure were tested in Calu-6 (Vendor: ATCC; Cat #HTB-56; Description: lung, adenocarcinoma), LU99 (Vendor: JCRB; Cat #JCRB0080; Description: non-small cell lung cancer), SW780 (Vendor: ATCC; Cat #CRL-2169; Description: bladder urothelial carcinoma), BxPC-3 (Vendor: ATCC; Cat #CRL-1687; Description: pancreatic adenocarcinoma), Panc-1 (Vendor: ATCC; Cat #CRL-1469 Description: pancreatic adenocarcinoma), AsPC-1 (Vendor: ATCC; Cat #CRL-1682; Description: pancreatic adenocarcinoma), Calu-6 (Vendor: ATCC; Cat #HTB-56; Description: non-small cell lung cancer), and U-2 OS (Vendor: ATCC; Cat #HTB-96; Description: osteosarcoma), cellular viability assays according to the general protocol. Seeded cells into 96-well plate and incubated overnight. Seeded an additional 10 wells per cell line in an additional 96-well plate for assessing Time Zero luminescence and incubated overnight. To treatment plates, added compounds into each well using Tecan D300e dispenser (nine three-fold dilutions starting at 10 μM) and incubated for 9 days. Time Zero (no compound treatment, luminescence assessed on day 1) and 9-day treatment (luminescence assessed on day 10) plates were assessed using the same CellTiter-Glo® substrate protocol. […] Recorded luminescence with Perkin Elmer Envision 2105 machine. Analyzed the data with GraphPad software. […]

Panc-1 = assay: Cell viability assay for additional cell lines: Panc-1; format: cell-based; details: for GI50: Homo sapiens, 216 h, 9-day treatment, average of n=2, read-out: MTAP-Deleted GI50
Experimental: (§2) Some Compounds of the Disclosure were tested in Calu-6 (Vendor: ATCC; Cat #HTB-56; Description: lung, adenocarcinoma), LU99 (Vendor: JCRB; Cat #JCRB0080; Description: non-small cell lung cancer), SW780 (Vendor: ATCC; Cat #CRL-2169; Description: bladder urothelial carcinoma), BxPC-3 (Vendor: ATCC; Cat #CRL-1687; Description: pancreatic adenocarcinoma), Panc-1 (Vendor: ATCC; Cat #CRL-1469 Description: pancreatic adenocarcinoma), AsPC-1 (Vendor: ATCC; Cat #CRL-1682; Description: pancreatic adenocarcinoma), Calu-6 (Vendor: ATCC; Cat #HTB-56; Description: non-small cell lung cancer), and U-2 OS (Vendor: ATCC; Cat #HTB-96; Description: osteosarcoma), cellular viability assays according to the general protocol. Seeded cells into 96-well plate and incubated overnight. Seeded an additional 10 wells per cell line in an additional 96-well plate for assessing Time Zero luminescence and incubated overnight. To treatment plates, added compounds into each well using Tecan D300e dispenser (nine three-fold dilutions starting at 10 μM) and incubated for 9 days. Time Zero (no compound treatment, luminescence assessed on day 1) and 9-day treatment (luminescence assessed on day 10) plates were assessed using the same CellTiter-Glo® substrate protocol. Thawed CellTiter-Glo® Buffer and lyophilized CellTiter-Glo® substrate and equilibrated to room temperature prior to use. The DMSO concentration was normalized to 0.137%. Transferred 100 ml CellTiter-Glo® Buffer into amber bottle containing CellTiter-Glo® substrate to reconstitute the lyophilized enzyme/substrate mixture. For Time Zero and 9-day treatment plates, removed all plating media. Added 100 μl fresh media/well. Added 100 μl CellTiter-Glo® Reagent per well. Mixed contents for 10 min on an orbital shaker to lyse cells. Recorded luminescence with Perkin Elmer Envision 2105 machine. Analyzed the data with GraphPad software. Potency fold difference is defined as GI50 (AMG193)/GI50 (Ca-47) for the MTAP^del cell line of interest. The structure of AMG193 is as follows.

SW780 = assay: Cell viability assay for additional cell lines: SW780; format: cell-based; details: for GI50: Homo sapiens, 216 h, 9-day treatment, average of n=2, read-out: MTAP-Deleted GI50
Experimental: as §2

AsPC-1 = assay: Cell viability assay for additional cell lines: AsPC-1; format: cell-based; details: Homo sapiens, ASPC1, 216 h, 9-day treatment, average of n=2, read-out: MTAP-WT GI50
Experimental: as §1

[1] = test system: HCT116 MTAP-deleted cell lines; assay: Cell viability assay for HCT116 isogenic pair (CellTitre-Glo, 7 days); format: cell-based; details: Homo sapiens, HCT-116, 168 h, 7 days of treatment, cell line not given
In short: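 HCT116 WT or MTAP-deleted cells, 100 per well, seeded onto pre-spotted PRMT5 inhibitor dose series in RPMI 1640/10% heat-inactivated FBS and grown 7 days at 37° C, 5% CO2. CellTiter-Glo luminescence then read; CC50 (nM) from 4-parameter logistic fit.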

BxPC-3 = assay: Cell viability assay for additional cell lines: BxPC-3; format: cell-based; details: for GI50: Homo sapiens, 216 h, 9-day treatment, average of n=2, read-out: MTAP-Deleted GI50
Experimental: as §2

Structure (SMILES)	BPR (Sprague-Dawley Rat PK)	clearance (Sprague-Dawley Rat PK) [mL/min/kg]	Fold IVIVc (Sprague-Dawley Rat PK) [x]	half-life (Sprague-Dawley Rat PK) [h]	Vd (Sprague-Dawley Rat PK) [L/kg]	GI50 (U-2 OS) [µM]	GI50 (Panc-1) [µM]	GI50 (SW780) [µM]	GI50 (AsPC-1) [µM]	CC50 [1] [µM]	GI50 (BxPC-3) [µM]	Potency fold difference (Panc-1; GI50 (AMG193)/GI50 (Ca-47))	Potency fold difference (SW780; GI50 (AMG193)/GI50 (Ca-47))	Potency fold difference (BxPC-3; GI50 (AMG193)/GI50 (Ca-47))
Nc1nc2cnc(C(=O)N3CCOC[C@@H]3c3ccc(C(F)(F)F)cc3)cc2c2c1COC2 [AMG193, reference compound]	0.95	37.7	1	1.1	1.82	9.36	0.517	0.096	> 10	0.069	0.068			
Nc1nc2cnc(C(=O)N3CCC[C@@H]4Oc5cc(C(F)(F)F)cc(F)c5[C@@H]43)cc2c2c1COC2 [Example Ca-47, (4-amino-1,3-dihydrofuro[3,4-c][1,7]naphthyridin-8-yl)((4aS,9bS)-9-fluoro-7-(trifluoromethyl)-3,4,4a,9b-tetrahydrobenzofuro[3,2-b]pyridin-1(2H)-yl)methanone]	0.89	14.2	0.37	2.5	2.08	2.3	0.087	0.017	2.8	0.014	0.016	5.9	5.6	4.3
